From US9907797B2, “Combination therapies for overcoming resistance to mitotic agents during chemotherapy” (EMORY UNIVERSITY, priority 2014, dated 2018)

Assays:
PARP1 = PARP1 (Homo sapiens, UniProt P09874); test: In vitro parylation studies; type: biochemical
A549 cells [1] = test: Cell viability assay, A3 with docetaxel; type: cell-based
A549 cells [2] = test: Colony formation assays in A549 cells transfected with shRNA; type: cell-based
Description: Various cell lines of different tissues of origin and with different CHFR expression status were exposed to 1 hour of docetaxel and 72 hours of ‘A3’. Effects were defined as 1−colony count (treatment)/colony count (control). The nature of the interaction between the two compounds was analyzed by the Bliss additivity method. […] For subsequent colony formation assays, cell lines were characterized into CHFR expressing vs. CHFR deficient cell lines by Western-Blot.
FIG. 4D knock-down of either CHFR or PARP1 in A549 cells alleviates the synergy that is observed in A549 cells transfected with scrambled shRNA. (*=synergy)
Finally, colony formation assays were performed on a panel of cell lines of different cancer types such as lung-, breast-, and colon cancer.

H460 cell line = test: Tumor growth in H460 mouse xenografts; type: in vivo, nude mice
Description: Pharmacokinetics of A3 were performed at various time points after iv and oral administration of a single dose of ‘A3’ at 10 mg/kg. 2.5×10^5 H460 cells were transplanted into the flank of nude mice were. 5 days after transplant, I.P. injection of DMSO, A3, docetaxel, or combination commenced. Explanted tumors are smallest in mice that were treated with combination therapy.
The in-vivo effects of ‘A3’, docetaxel and the combination on tumor growth in mouse xenografts, who were previously injected with the H460 cell line were evaluated.

[3] = Toxicity in treated xenograft mice; type: in vivo; settings: combination treatment with A3 and docetaxel, 10 days after treatment
CHFR [4] = molecular target: T1, CHFR (Homo sapiens, UniProt Q96EP1); test: Nuclear localization of CHFR (staining) in A549 cells with MG-132; type: cell-based; parameters: endogenous in cells; host or cells: A549; settings: A3 in combination with MG-132, A549 cells
T1 sequence (Q96EP1 1-664): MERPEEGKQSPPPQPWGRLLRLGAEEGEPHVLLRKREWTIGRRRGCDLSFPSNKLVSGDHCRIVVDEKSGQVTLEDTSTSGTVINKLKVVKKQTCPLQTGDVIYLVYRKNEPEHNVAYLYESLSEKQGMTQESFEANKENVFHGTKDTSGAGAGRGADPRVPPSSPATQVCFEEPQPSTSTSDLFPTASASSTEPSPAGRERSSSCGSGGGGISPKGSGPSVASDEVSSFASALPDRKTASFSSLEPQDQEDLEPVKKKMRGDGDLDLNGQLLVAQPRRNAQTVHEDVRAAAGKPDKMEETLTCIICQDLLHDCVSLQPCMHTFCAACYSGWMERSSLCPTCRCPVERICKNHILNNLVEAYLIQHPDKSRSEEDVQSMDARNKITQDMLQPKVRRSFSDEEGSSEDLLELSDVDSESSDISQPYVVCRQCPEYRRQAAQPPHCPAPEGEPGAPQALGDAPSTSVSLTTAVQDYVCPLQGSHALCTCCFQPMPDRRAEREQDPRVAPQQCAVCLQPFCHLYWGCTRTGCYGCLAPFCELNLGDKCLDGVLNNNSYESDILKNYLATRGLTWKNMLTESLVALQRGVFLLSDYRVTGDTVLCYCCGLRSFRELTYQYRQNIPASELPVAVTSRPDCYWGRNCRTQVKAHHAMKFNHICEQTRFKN
Description: HEK293 cells were stably transfected with the pDEST27-AR-CHFR construct. Deletion of the RING domain in this construct leads to both stable CHFR and PARP1 expression that is unaltered by treatment with increasing concentrations of ‘A3’ for 16 hours. Nonetheless, the interaction between glutathione-affinity purified CHFR-ΔR and PARP1 was decreased by ‘A3’ in a dose dependent fashion. A549 cells were incubated for 16.5 hrs with MG132 and indicated A3 concentration for 16 hrs. At 10 uM A3 concentration CHFR staining is diminished in the nucleus Cells are stained with CHFR.
In an attempt to generate possible lead compounds for the pharmacologic inhibition of the CHFR-PARP1 interaction, a high throughput computational screen of 5,256,508 chemical structures in the MCULE database of purchasable compounds using the AutoDockVina algorithm against the published crystal structure of the CHFR-PBZ domain was performed. The 10 most promising ‘hits’ based on Autodock Vina docking scores (<−9.7) were selected for further characterization. Commercially available compounds were tested for their impact on nuclear CHFR levels (FIG. 3A). […] The impact of the above referenced compounds on the PARP1/CHFR interaction were evaluated. HEK293 cells were transfected with GST tagged PARP1 and the interaction with CHFR determined in pull down assays for those 4 compounds. […]

CHFR [5] = molecular target: T1, CHFR; test: CHFR immunohistochemistry in A549 tumor xenografts; type: in vivo, nude mice; parameters: endogenous in cells; host or cells: A549 cells grown as flank xenografts in nude mice; settings: single ip injection 10 mg/kg
Description: 4 hrs after i.p. injection a significant reduction in nuclear CHFR staining was observed, indicating an in vivo reproducible pharmacodynamic effect of ‘A3’.
‘A3’ is capable of disrupting the interaction between CHFR and PARP1 in vitro, leading to a depletion of CHFR expression and to sensitization towards the cytotoxic effects of taxanes. The impact of ‘A3’ administration on lung tumor xenografts was evaluated. A549 NSCLC cells were injected into the flank of nude mice and allowed to establish for approximately 14 days. Once tumors had reached a volume about 100 mm3, mice received a single ip injection of ‘A3’ at 10 mg/kg. Mice were then euthanized at 1, 2, 4 and 24 hours after and CHFR in the xenografts was analyzed by immunohistochemistry (FIG. 5A).

Chain of PARP1 (P09874 whole entry, species assumed): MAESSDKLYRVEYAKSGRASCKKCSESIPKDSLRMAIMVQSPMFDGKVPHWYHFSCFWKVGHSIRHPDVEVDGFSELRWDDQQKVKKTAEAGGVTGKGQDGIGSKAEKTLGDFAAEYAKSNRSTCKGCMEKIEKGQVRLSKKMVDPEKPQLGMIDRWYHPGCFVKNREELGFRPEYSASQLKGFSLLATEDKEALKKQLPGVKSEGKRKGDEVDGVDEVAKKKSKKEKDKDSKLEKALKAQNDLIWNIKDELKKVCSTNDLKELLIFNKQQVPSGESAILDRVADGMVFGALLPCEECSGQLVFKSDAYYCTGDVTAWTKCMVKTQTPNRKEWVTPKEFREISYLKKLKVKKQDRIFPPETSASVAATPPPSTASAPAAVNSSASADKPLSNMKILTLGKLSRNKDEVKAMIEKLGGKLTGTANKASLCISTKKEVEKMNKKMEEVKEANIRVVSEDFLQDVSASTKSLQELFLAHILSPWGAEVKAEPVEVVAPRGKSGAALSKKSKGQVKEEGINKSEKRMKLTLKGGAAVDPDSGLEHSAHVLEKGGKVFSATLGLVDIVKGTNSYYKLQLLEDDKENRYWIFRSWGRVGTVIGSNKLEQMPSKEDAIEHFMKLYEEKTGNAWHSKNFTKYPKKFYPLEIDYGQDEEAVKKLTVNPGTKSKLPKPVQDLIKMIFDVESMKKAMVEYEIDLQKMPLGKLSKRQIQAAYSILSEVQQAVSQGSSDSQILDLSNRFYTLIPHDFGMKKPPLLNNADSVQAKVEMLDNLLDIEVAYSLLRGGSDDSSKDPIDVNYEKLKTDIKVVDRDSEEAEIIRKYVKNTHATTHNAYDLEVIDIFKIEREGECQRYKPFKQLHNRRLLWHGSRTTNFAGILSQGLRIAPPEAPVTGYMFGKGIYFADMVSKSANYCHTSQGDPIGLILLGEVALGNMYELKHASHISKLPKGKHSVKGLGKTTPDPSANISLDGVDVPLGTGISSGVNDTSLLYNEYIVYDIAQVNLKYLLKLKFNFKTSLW

## Cc1ccc(N2C(=O)NC(=O)C(=Cc3cn(Cc4ccccc4)c4ccccc34)C2=O)cc1C [A3, 5-((1-benzyl-1H-indol-3-yl)methylene)-1-(3,4-dimethylphenyl)pyrimidine-2,4,6(1H,3H,5H)-trione]
PARP1
  PARP1 auto-parylation: no impact on PARP1 auto-parylation
A549 cells [1]; 10 and 20 uM/nM concentrations
  nature of interaction of A3 and docetaxel by combination index: synergistic effects
A549 cells [1]; A3 plus docetaxel, 10 and 20 nM concentrations, 72 hours, p<0.01
  cell viability, combination treated cells: statistically significantly decreased viability
A549 cells [1]; A3 with docetaxel, A549 cells, 72 hours, Chou-Talaley method
  Combination index (CI): < 1
A549 cells [2]; A549 after CHFR or PARP1 knockdown
  synergy between A3 and docetaxel, colony formation: not after CHFR or PARP1 knockdown
A549 cells [2]; A549 scrambled shRNA
  synergy between A3 and docetaxel, colony formation: Synergy between A3 and docetaxel was maintained only in the A549 scramble cell line
H460 cell line; A3 alone compared to DMSO alone, I.P.
  tumor growth: did not have a discernable effect on tumor growth
H460 cell line; A3 given 4 hours prior to docetaxel, compared to docetaxel alone
  tumor size: significantly decreased tumor size
[3]
  hematologic, hepatic and renal toxicity: not associated with a significant increase in hematologic, hepatic and renal toxicity
CHFR [4]
  nuclear localization of CHFR: depletion of nuclear CHFR and accumulation of cytoplasmic CHFR
CHFR [5]; 24 hr time point
  nuclear CHFR expression in xenografts: restored to baseline levels
CHFR [5]; after 4 hours
  nuclear CHFR expression in xenografts: Significant suppression of nuclear CHFR expression
